From ChEMBL document CHEMBL5247582 (Eur J Med Chem, 2022)
Calls of active or inactive are those of the source. No cut-off for these calls is given here.

What was measured:
[1] = target: T1, Solute carrier family 22 member 12 (Homo sapiens, UniProt Q96S37); test: Inhibition of human URAT1 mediated 14C-uric acid uptake expressed in HEK293 cells using 14C-uric acid as substrate incubated for 30 mins by liquid scintillation counting analysis; format: cell-based
T1 sequence (Q96S37 whole entry): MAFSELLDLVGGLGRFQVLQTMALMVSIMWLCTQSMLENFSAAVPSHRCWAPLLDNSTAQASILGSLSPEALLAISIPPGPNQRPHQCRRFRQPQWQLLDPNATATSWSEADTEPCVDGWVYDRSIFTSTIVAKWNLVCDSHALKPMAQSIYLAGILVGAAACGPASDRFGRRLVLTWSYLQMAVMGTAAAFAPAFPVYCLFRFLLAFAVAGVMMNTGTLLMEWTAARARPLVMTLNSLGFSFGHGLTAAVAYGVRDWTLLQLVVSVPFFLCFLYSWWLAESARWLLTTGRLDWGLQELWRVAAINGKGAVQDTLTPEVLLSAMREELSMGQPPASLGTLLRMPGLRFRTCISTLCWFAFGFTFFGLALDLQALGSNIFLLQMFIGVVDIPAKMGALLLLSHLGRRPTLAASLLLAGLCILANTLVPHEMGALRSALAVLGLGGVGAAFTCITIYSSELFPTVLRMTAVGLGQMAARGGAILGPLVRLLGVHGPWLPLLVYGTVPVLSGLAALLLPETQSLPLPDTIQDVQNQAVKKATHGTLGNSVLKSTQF

Mus musculus [2] = test: Anti-hyperuricemic activity against hypoxanthine/potassium oxonate-induced Kunming mouse model assessed as reduction in serum uric acid level at 2 mg/kg, sc measured after 4 hrs (reference value: 1010.00 +/- 51.16 uM); format: functional
Mus musculus [3] = test: Anti-hyperuricemic activity against hypoxanthine/potassium oxonate-induced Kunming mouse model assessed as decrease in serum uric acid ratio at 2 mg/kg, sc measured after 4 hrs; format: functional; set-up: scale not given: the % may be the effect or the level left
[4] = target: T2, Solute carrier family 2, facilitated glucose transporter member 9 (Homo sapiens, UniProt Q9NRM0); test: Inhibition of GLUT9 (unknown origin) transfected in HEK293 cells assessed as inhibition of uric acid-induced current by whole cell patch clamp analysis; format: cell-based
T2 sequence (Q9NRM0 whole entry): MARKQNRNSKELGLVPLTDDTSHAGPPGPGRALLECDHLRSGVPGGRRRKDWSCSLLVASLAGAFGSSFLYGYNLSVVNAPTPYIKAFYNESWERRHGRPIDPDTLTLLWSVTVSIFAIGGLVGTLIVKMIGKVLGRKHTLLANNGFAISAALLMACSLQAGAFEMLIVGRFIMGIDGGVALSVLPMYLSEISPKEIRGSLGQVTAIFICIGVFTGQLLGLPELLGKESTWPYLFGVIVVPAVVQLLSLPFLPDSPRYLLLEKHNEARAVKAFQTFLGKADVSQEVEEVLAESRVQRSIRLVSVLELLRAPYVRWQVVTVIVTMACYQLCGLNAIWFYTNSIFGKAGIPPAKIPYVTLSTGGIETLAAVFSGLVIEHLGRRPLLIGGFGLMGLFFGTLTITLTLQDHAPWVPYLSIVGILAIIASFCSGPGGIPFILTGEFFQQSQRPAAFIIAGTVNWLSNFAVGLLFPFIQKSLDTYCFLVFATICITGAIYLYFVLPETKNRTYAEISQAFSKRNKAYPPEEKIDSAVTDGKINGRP

[5] = Acute toxicity in Kunming male mouse assessed as survival rate at 1000 mg/kg, IG; format: organism-based; details: in vivo, po, read-out: Activity
[6] = Acute toxicity in Kunming female mouse assessed as survival rate at 1000 mg/kg, IG; format: organism-based; details: in vivo, po, read-out: Activity
[7] = Acute toxicity in Kunming female mouse assessed as lethargy at 1000 mg/kg, IG; format: organism-based; details: in vivo, po
[8] = Acute toxicity in Kunming female mouse assessed as clonic convulsion at 1000 mg/kg, IG; format: organism-based; details: in vivo, po
[9] = Acute toxicity in Kunming female mouse assessed as anorexia at 1000 mg/kg, IG; format: organism-based; details: in vivo, po
[10] = Acute toxicity in Kunming female mouse assessed as ruffled fur at 1000 mg/kg, IG; format: organism-based; details: in vivo, po
[11] = Acute toxicity in Kunming female mouse assessed as effect on body weight changes at 1000 mg/kg, IG measured for 7 days; format: organism-based; details: in vivo, po, 168 h, time 7 day
[12] = target: T3, Solute carrier family 2, facilitated glucose transporter member 9 (Homo sapiens) (UniProt Q9NRM0); test: Inhibition of GLUT9 (unknown origin) transfected in HEK293 cells assessed as inhibition of uric acid-induced current at 100 uM by whole cell patch clamp analysis; format: cell-based
T3 sequence (whole entry): T2 sequence (Q9NRM0 whole entry)

Row | Compound | IC50 [1] [µM] | Activity (Mus musculus [2]) [µM] | Activity (Mus musculus [3]) [%] | other results
1 | O=C(CSc1nc2sccc2c(=O)n1-c1ccc(C2CC2)c2ccccc12)NS(=O)(=O)c1ccc(Br)cc1 | 7.56 | 336.67 | 73.29 | IC50 [4]: 56 µM; survival [5]: 100%; survival [6]: 100%; Activity [7]: Non-Toxic; Activity [8]: Non-Toxic; Activity [9]: Non-Toxic; Activity [10]: Non-Toxic; Activity [11]: Non-Toxic
2 | CC(Sc1ccncc1C(=O)N1CCOc2ccccc21)C(=O)O (configuration not stated) | – | 580 | 40.93 | –
3 | O=C(CSc1nc2sccc2c(=O)n1-c1ccc(C2CC2)c2ccccc12)NS(=O)(=O)c1ccccc1[N+](=O)[O-] | 9.79 | – | – | –
4 | O=C(CSc1nc2sccc2c(=O)n1-c1ccc(C2CC2)c2ccccc12)NS(=O)(=O)c1ccc(F)cc1F | 9.92 | – | – | –
5 | O=C(CSc1nc2sccc2c(=O)n1-c1ccc(C2CC2)c2ccccc12)NS(=O)(=O)C1CC1 | 11.6 | – | – | –
6 | CC(C)(C)S(=O)(=O)NC(=O)CSc1nc2sccc2c(=O)n1-c1ccc(C2CC2)c2ccccc12 | 11.1 | – | – | –
7 | O=C(CSc1nc2sccc2c(=O)n1-c1ccc(C2CC2)c2ccccc12)NS(=O)(=O)c1ccc(F)cc1 | 11.4 | – | – | –
8 | CC(C)(C)c1ccc(S(=O)(=O)NC(=O)CSc2nc3sccc3c(=O)n2-c2ccc(C3CC3)c3ccccc23)cc1 | 13.5 | – | – | –
9 | O=C(O)CSc1ccncc1C(=O)N1CCc2ccccc2C1 | – | 682.25 | 28.73 | –
10 | O=C(CSc1nc2sccc2c(=O)n1-c1ccc(C2CC2)c2ccccc12)NS(=O)(=O)c1ccc(Cl)cc1 | 11.9 | – | – | –
11 | CCS(=O)(=O)NC(=O)CSc1nc2sccc2c(=O)n1-c1ccc(C2CC2)c2ccccc12 | 7.9 | 675.67 | 36.39 | –
12 | O=C(O)CCSc1ccncc1C(=O)N1CCOc2ccccc21 | – | 719.33 | 24.3 | –
13 | O=C(CSc1nc2sccc2c(=O)n1-c1ccc(C2CC2)c2ccccc12)NS(=O)(=O)c1ccc(Cl)s1 | 9.7 | – | – | –
14 | CC(C)S(=O)(=O)NC(=O)CSc1nc2sccc2c(=O)n1-c1ccc(C2CC2)c2ccccc12 | 9.25 | – | – | –
15 | O=C(O)CSc1nnc(Br)n1-c1ccc(C2CC2)c2ccccc12 | – | 763 | 26 | inhibition [12]: inactive; survival [5]: 40%; survival [6]: 20%
16 | O=C(O)CSc1nc2sccc2c(=O)n1-c1ccc(C2CC2)c2ccccc12 | – | – | – | IC50 ([1]; hek293): 3.27 µM
17 | O=C(CSc1nc2sccc2c(=O)n1-c1ccc(C2CC2)c2ccccc12)NS(=O)(=O)c1cccc([N+](=O)[O-])c1 | 11.5 | – | – | –
18 | O=C(CSc1nc2sccc2c(=O)n1-c1ccc(C2CC2)c2ccccc12)NS(=O)(=O)c1ccc(O)cc1 | 20.3 | – | – | –
19 | O=C(CSc1nc2sccc2c(=O)n1-c1ccc(C2CC2)c2ccccc12)NS(=O)(=O)c1ccc(C(F)(F)F)cc1 | 16.2 | – | – | –
20 | O=C(CSc1nc2sccc2c(=O)n1-c1ccc(C2CC2)c2ccccc12)NS(=O)(=O)c1ccc([N+](=O)[O-])cc1 | 9.72 | – | – | –
21 | O=C(CSc1nc2sccc2c(=O)n1-c1ccc(C2CC2)c2ccccc12)NS(=O)(=O)c1ccccc1 | 11.4 | – | – | –
22 | O=C(c1cnccc1SC1(C(=O)O)CCC1)N1CCc2ccccc2C1 | – | 621.33 | 36 | –
23 | CC(Sc1ccncc1C(=O)N1CCc2ccccc2C1)C(=O)O (configuration not stated) | – | 479.67 | 52.9 | –
24 | O=C(O)CSc1ccncc1C(=O)N1CCOc2ccccc21 | – | 802.33 | 14.4 | –
25 | CS(=O)(=O)NC(=O)CSc1nc2sccc2c(=O)n1-c1ccc(C2CC2)c2ccccc12 | 7.31 | 533.67 | 51.85 | –
26 | O=C(CSc1nc2sccc2c(=O)n1-c1ccc(C2CC2)c2ccccc12)NS(=O)(=O)c1cc(F)cc(F)c1 | 7.68 | 512.33 | 54.17 | –
